# In patent US5506354A, “Imidazolylpiperazinyl steroids” (The Upjohn Company, priority 1992, dated 1996):
# Where a name gives a salt, the structure may show the parent alone.
# Tests used:
# arachidonic acid = experiment: Arachidonic Acid Antagonism Assay (AAAA), LD50 of sodium arachidonate; format: in vivo, Charles River male CF-1 mice; conditions: test compound IV 15 min before sodium arachidonate; LD50 outside 95% confidence interval of control
# Procedure: Since these metabolites contribute to the pathological problems associated with stroke, spinal trauma and head injury, compounds which antagonize arachidonic acid are useful in treating stroke, spinal trauma and head injury.
# While not necessary to determine arachidonic acid antagonism, the above assay has been modified as follows: Charles River male CF-1 mice weighing 18-22 g are treated IV with the test compound dissolved in 1.0% Tween-80 and 0.1% hydrochloric acid in distilled water, 0.2 ml total volume. Fifteen minutes later sodium arachidonate (90% pure) in physiological (normal) saline is injected into the tail vein. The LD50 is measured using the Spearman-Karber method with a log dose interval of 0.05 (N=6). Compounds which elevate the LD50 outside of the 95% confidence interval of the control LD50 are considered to be "active".
# angiogenesis = experiment: Chick embryo assay of Folkman (inhibition of angiogenesis / tumor growth); format: in vivo; conditions: 50 μg/10 μl in the presence of heparin
# Procedure: According to this procedure compounds which are considered to be "active" (i.e. antiangiogenic) give an avascular zone of 4 mm or greater in some embryos when tested at 50 μg/10 μl in the presence of 50 μg/10μ of heparin.
# MDA formation = experiment: Malonyldialdehyde (MDA) Formation Assay (rat brain synaptosomes); format: biochemical; conditions: 10 min at 37°, pH 7.0; active = 50% or more at 200 μM or less
# Procedure: Since lipid peroxidation is involved in the pathophysiology of center nervous system trauma, compounds which inhibit MDA formation are useful in treating the conditions listed below.
# While not necessary to determine MDA formation, the above assays have been modified as follows: rat brain synaptosomes are prepared as described in the Example about the conjugated diene assay, except that the final wash of the synaptosomes and final suspension are in physiological (normal) saline in which the pH has been adjusted to 7.0. The synaptosomes are incubated for 10 min at 37° in physiological (normal) saline pH 7.0 (total volume=100 ul) containing; 10 ul synaptosomal suspension, 10% DMSO plus or minus drug, 150 uM Fe^+++ and 50 uM Fe++. The incubation is started by the rapid addition of iron to the otherwise complete reaction. The iron solutions are prepared fresh as ferric chloride and ferrous ammonium sulfate in argon-purged water. Following the 10 min incubation, the reaction is stopped by the addition of 500 ul ice-cold 12% trichloroacetic acid prepared in 0.5N hydrochloric acid. Water (300 ul) is then added along with 100 ul of freshly prepared thiobarbituric acid (3.3% in 0.5N sodium hydroxide) and 10 ul of 5 mM desferrioxamine. The sample is then heated in a boiling water bath for 20 minutes. The samples are cooled and centrifuged for 15 minutes at 1500×g and the absorbence of the supernatant fraction is read at 532 nm. The % inhibition of MDA formation is calculated by dividing the absorbance of sample containing drug by the absorbence of samples incubated without drug. Reaction blanks are samples incubated in the absence of iron. A compound that inhibits MDA formation by 50% or more at a concentration of 200 μM or less is considered "active".
# interleukin-1 = experiment: Inhibition of interleukin-1 induced T cell proliferation; format: cell-based; conditions: for inhibition of interleukin 1 (activity in words): active = greater than 30% at 10^-6 M
# From the text: The inhibition of interleukin-1 induced T cell proliferation assay, Proc. Nat. […] Since people with arthritis make excess interleukin 1, compounds which inhibit the activity of interleukin 1 are useful in the treatment of arthritis. According to this procedure compounds which inhibit the activity of interleukin 1 greater that 30% at 10^-6 M are considered to be "active".
SMILES,inhibition of MDA formation (activity in words) (MDA formation),inhibition of interleukin 1 (activity in words) (interleukin-1),also measured
"COc1ccccc1N1CCN(CC(=O)[C@@]2(O)CC[C@H]3[C@@H]4CCC5=CC(=O)CC[C@]5(C)[C@H]4CC[C@@]32C)CC1.Cl.Cl.O [Example 41, 17α-hydroxy-21-[4-(2-methoxyphenyl)-1-piperazinyl]pregn-4-ene-3,20-dione dihydrochloride hydrate]",–,–,arachidonic acid antagonism (activity in words) (arachidonic acid): demonstrate arachidonic acid antagonism; % of Embryos with 4 mm or Greater Avascular Zone (angiogenesis): 80%
"C[C@]12CCC(=O)C=C1CC[C@@H]1C2=CC[C@]2(C)[C@@H](CCN3CCN(c4cc(N5CCCC5)nc(N5CCCC5)n4)CC3)CC[C@@H]12.Cl [Example 104, 21-[4-(2,6-Bis(1-pyrrolidinyl)-4-pyrimidinyl)-1-piperazinyl]pregna-4,9(11)-dien-3-one hydrochloride]",demonstrate such activity,–,inhibition of angiogenesis (activity in words) (angiogenesis): demonstrate inhibition of angiogenesis
"COc1ccc2c(c1)CC[C@@H]1[C@@H]2CC[C@@]2(C)[C@H]1CC[C@]2(O)C(=O)CN1CCN(c2cc(N3CCCC3)nc(N3CCCC3)n2)CC1 [Example 125, 3,17α-Dihydroxy-21-[4-[2,6-bis(1-pyrrolidinyl)-4-pyrimidinyl]-1-piperazinyl]-19-norpregna-1,3,5(10)-trien-20-one 3-methyl ether (E)-2-butenedioate 1:1 salt]",demonstrate such activity,–,–
"CC(CN1CCN(c2cc(N3CCCC3)nc(N3CCCC3)n2)CC1)[C@H]1CC[C@H]2[C@@H]3CCC4=CC(=O)CC[C@]4(C)[C@H]3CC[C@]12C.Cl (some centres unmarked) [Example 107, 20-Methyl-21-[4-(2,6-bis(1-pyrrolidinyl)-4-pyrimidinyl)-1-piperazinyl]pregna-4-ene-3-one hydrochloride]",demonstrate such activity,–,–
"C[C@]12CC[C@H]3[C@@H](CCC4=CC(=O)C=C[C@@]43C)[C@@H]1CC[C@@H]2C(=O)CN1CCN(c2cc(N3CCCC3)nc(N3CCCC3)n2)CC1.Cl.Cl [Example 97, 21-[4-[2,6-di-(1-pyrrolidinyl)-4-pyrimidinyl]-1-piperazinyl]-pregna-1,4-diene-3,20-dione dihydrochloride]",–,demonstrate inhibition of interleukin 1,inhibition of angiogenesis (activity in words) (angiogenesis): demonstrate inhibition of angiogenesis
"CCN(CC)c1ccc(N(C)C)c(N2CCN(CC(=O)[C@@]3(O)CC[C@H]4[C@@H]5CCC6=CC(=O)CC[C@]6(C)C5=CC[C@@]43C)CC2)n1.Cl.Cl [Example 96, 21-[4-[6-(diethylamino)-3-(dimethylamino)-2-pyridinyl]-1-piperazinyl]-17α-hydroxypregna-4,9(11)-diene-3,20-dione dihydrochloride]",–,demonstrate inhibition of interleukin 1,"% Inhibition at 10^-6 M (interleukin-1; interleukin 1, 10^-6 M): 77%"
"CN(CCN(C)c1ccccn1)CC(=O)[C@@]1(O)CC[C@H]2[C@@H]3CCC4=CC(=O)CC[C@]4(C)C3=CC[C@@]21C [Example 24, 17α-hydroxy-21-[methyl[2-(methyl-2-pyridinylamino)ethyl]-aminopregna-4,9(11)-diene-3,20-dione dihydrochloride]",–,–,arachidonic acid antagonism (activity in words) (arachidonic acid): demonstrate arachidonic acid antagonism; inhibition of angiogenesis (activity in words) (angiogenesis): demonstrate inhibition of angiogenesis
"C[C@@]12C(=CC(=O)C[C@@H]1C#N)CC[C@@H]1C2=CC[C@]2(C)[C@@H](CCN3CCN(c4cc(N5CCCC5)nc(N5CCCC5)n4)CC3)CC[C@@H]12.Cl.Cl.Cl.O [Example 110, 21-[4-(2,6-Bis(1-pyrrolidinyl)4-pyrimidinyl)-1-piperazinyl]-1α-cyanopregna-4,9(11)-dien-3-one-trihydrochloride, hydrate]",demonstrate such activity,–,–
"C[C@]12CC[C@@H]3c4ccc(O)cc4CC[C@H]3[C@@H]1CC[C@]2(O)C(=O)CN1CCN(c2cc(N3CCCC3)nc(N3CCCC3)n2)CC1 [Example 129, 3,17α-Dihydroxy-21-[4-[2,6-bis(1-pyrrolidinyl)-4-pyrimidinyl]-1-piperazinyl]-19-norpregna-1,3,5(10)-trien-20-one (E)-2-butenedioate 1:1 salt]",demonstrate such activity,–,–
"COc1ccc(CCN(CC(=O)[C@@]2(O)CC[C@H]3[C@@H]4CCC5=CC(=O)CC[C@]5(C)C4=CC[C@@]32C)Cc2cc(OC)c(OC)c(OC)c2)cc1OC [Example 37, 17α-hydroxy-21-[[2-(3,4-dimethoxy-phenyl)ethyl]-[3,4,5-trimethoxyphenyl)methyl]amino]pregna-4,9(11)diene-3,20-dione hydrochloride]",–,demonstrate inhibition of interleukin 1,inhibition of angiogenesis (activity in words) (angiogenesis): demonstrate inhibition of angiogenesis
"C[C@]12CC(=O)[C@H]3[C@@H](CCC4=CC(=O)CC[C@@]43C)[C@@H]1CC[C@@H]2C(=O)CN1CCN(c2cc(N3CCCC3)nc(N3CCCC3)n2)CC1.Cl.Cl [Example 94, 21-[4-[2,6-bis(1-pyrrolidinyl)-4-pyrimidinyl]-1-piperazinyl]pregn-4-ene-3,11,20-trione dihydrochloride]",–,demonstrate inhibition of interleukin 1,–
"C[C@H]1C[C@@H]2[C@H]([C@@H](O)C[C@@]3(C)[C@H]2CC[C@]3(O)C(=O)CN2CCN(c3ccccn3)CC2)[C@@]2(C)C=CC(=O)C=C12 [Example 21, 11β,17α-dihydroxy-6α-methyl-21-[4-(2-pyridinyl)-1-piperazinyl]pregna-1,4-diene-3,20-dione]",–,demonstrate inhibition of interleukin 1,arachidonic acid antagonism (activity in words) (arachidonic acid): demonstrate arachidonic acid antagonism; % of Embryos with 4 mm or Greater Avascular Zone (angiogenesis): 91%; inhibition of angiogenesis (activity in words) (angiogenesis): demonstrate inhibition of angiogenesis
"CN1CCN(CC(=O)[C@@]2(O)CC[C@H]3[C@@H]4CCC5=CC(=O)CC[C@]5(C)C4=CC[C@@]32C)CC1 [Example 101, 17α-hydroxy-21-(4-methyl-1-piperazinyl)pregna-4,9(11)-diene-3,20-dione]",–,demonstrate inhibition of interleukin 1,–
"C[C@]12CCC(=O)C=C1CC[C@@H]1[C@@H]2[C@H](O)C[C@@]2(C)[C@H]1CC[C@]2(O)C(=O)CN1CCN(c2ccc(F)cc2)CC1 [Example 29, 21-[4-(4-fluorophenyl)-1-piperazinyl]-11α,17α-dihydroxypregn-4-ene-3,20-dione dihydrochloride]",–,–,arachidonic acid antagonism (activity in words) (arachidonic acid): demonstrate arachidonic acid antagonism
"C[C@H]1C[C@H]2[C@@H]3C[C@H](F)C4=CC(=O)CC[C@]4(C)C3=CC[C@]2(C)[C@@]1(O)C(=O)CN1CCN(c2cc(N3CCCC3)nc(N3CCCC3)n2)CC1 [Example 118, 6αa-Fluoro-17α-hydroxy-16β-methyl-21-[4-[2,6-bis(1-pyrrolidinyl)-4-pyrimidinyl]-1-piperazinyl]-pregna-4,9(11)-diene-3,20-dione dihydrochloride]",demonstrate such activity,–,–
"C[C@]12CCC(=O)C=C1CC[C@@H]1C2=CC[C@@]2(C)[C@H]1CC[C@]2(O)C(=O)CN1CCN(Cc2ccccn2)CC1 [Example 54, 17α-hydroxy-21-[4-(2-pyridinylmethyl)-1-piperazinyl]-pregna-4,9(11)-diene-3,20-dione (E)-2-butenedioate 1:1 salt]",–,–,arachidonic acid antagonism (activity in words) (arachidonic acid): demonstrate arachidonic acid antagonism
"C[C@@H]1C[C@H]2[C@@H]3CCC4=CC(=O)C=C[C@]4(C)[C@H]3CC[C@]2(C)[C@H]1C(=O)CN1CCN(c2cc(N3CCCC3)nc(N3CCCC3)n2)CC1.Cl.Cl [Example 121, 16α-Methyl-21-[4-[2,6-bis(1-pyrrolidinyl)-4-pyrimidinyl]-1-piperazinyl]-pregna-1,4-diene-3,20-dione dihydrochloride]",demonstrate such activity,–,–
